Test system: pooled citrated plasma
Experiment: in vitro activated partial thromboplastin time (APTT) assay
Set-up: species or system mice
Details: hirudin at concentrations above 2 μg/mL
Method: The anticoagulant activity of the thrombin inhibitors disclosed herein is determined by measuring their ability to prolong clotting of human plasma in vitro using a clinical TT assay. Briefly, human plasma from healthy donors (800 μL) is mixed with a concentration range of inhibitors, clotting initiated by addition of thrombin, and clotting time measured using a coagulometer. Compounds which prolong clotting time to 30 sec at a concentration of 50 nM may be further investigated in vitro/ex vivo for APTT. In brief, pooled citrated plasma from C57BL6/J mice is pre-incubated with various concentrations (0-12 μg/mL) of inhibitors. APTT of each plasma sample is quantified following addition of a coagulation activator and CaCl2). In an ex vivo assay, mice are injected i.v. with inhibitors (fixed concentration determined from in vitro APTT) and whole blood collected into sodium citrate (˜130 μL) 0, 5, 30 and 60 min post-administration. APTT is quantified on isolated plasma using a RANDOX APTT kit, with fibrin generation monitored to measure clotting time.
We investigated the ability of the inhibitor of Example 2 (A^Aa) to prolong clotting time in an in vitro activated partial thromboplastin time (APTT) assay (FIG. 1A).

hirudin
increase in clotting time (APTT): 8 fold
